Patent publication EP0745599A2, “1-(3-Heterocyclylphenyl)-s-triazine-2,4,6-oxo or thiotrione herbicidal agents” (American Cyanamid Company, priority 1995, dated 1996)

Legend:
Type in all cases: in vivo
Conditions in all cases: rated four to five weeks after treatment
[1] = tested on: TRITICUM AESTIVUM, CV. APOLLO; test: Preemergence herbicidal evaluation, TRZAWO (Wheat, Winter, CV. APOLLO)
From the text: (§1) Results of herbicide evaluation are expressed on a rating scale (0-9). The scale is based upon a visual observation of plant stand, vigor, malformation, size, chlorosis and overall plant appearance as compared with a control.
(§2) The preemergence herbicidal activity of the test compounds of the present invention is exemplified by the following tests in which the seeds of a variety of monocotyledonous and dicotyledonous plants are separately mixed with potting soil and planted on top of approximately one inch of soil in separate pint cups. After planting, the cups are sprayed with the selected aqueous acetone solution containing test compound in sufficient quantity to provide the equivalent of about 0.125 to 0.50 kg per hectare of test compound per cup. The treated cups are then placed on greenhouse benches, watered and cared for in accordance with conventional greenhouse procedures. From four to five weeks after treatment, the tests are terminated and each cup is examined and rated according to the rating system provided in Example 42.

[2] = tested on: SETARIA VIRIDIS, (L) BEAU; test: Postemergence herbicidal evaluation, SETVI (Foxtail, Green)
Protocol: (§3) In the tests, seedling plants are grown in jiffy flats for about two weeks. The test compounds are dispersed in 50/50 acetone/water mixtures containing 0.5% TWEEN®20, a polyoxyethylene sorbitan monolaurate surfactant of Atlas Chemical Industries, in sufficient quantities to provide the equivalent of about 0.125 kg to 0.500 kg per hectare of active compound when applied to the plants through a spray nozzle operating at 40 psi for a predetermined time. After spraying, the plants are placed on greenhouse benches and are cared for in the usual manner, commensurate with conventional greenhouse practices. From four to five weeks after treatment, the seedling plants are examined and rated according to the rating system set forth below. Where more than one test is involved for a given compound, the data are averaged.
as §1

[3] = tested on: ABUTILON THEOPHRASTI, MEDIC.; test: Preemergence herbicidal evaluation, ABUTH (Velvetleaf)
From the text: as §1, §2

[4] = tested on: ORYZA SATIVA, L. TEBONNET; test: Preemergence herbicidal evaluation, ORYSAT (Rice, Tebonnet)
From the text: as §1, §2

[5] = tested on: AMBROSIA ARTEMISIIFOLIA, L.; test: Preemergence herbicidal evaluation, AMBEL (Ragweed, Common)
From the text: as §1, §2

IPOMOEA SPP. = test: Preemergence herbicidal evaluation, IPOSS (Morningglory Spp.)
From the text: as §1, §2

[6] = tested on: GLYCINE MAX(L)MERR. CV. WILLIAMS; test: Preemergence herbicidal evaluation, GLXMAW (Soybean, Williams)
From the text: as §1, §2

[7] = tested on: ECHINOCHLOA CRUS-GALLI, (L) BEAU; test: Postemergence herbicidal evaluation, ECHCG (Barnyardgrass)
Protocol: as §3, §1

ZEA MAYS L. = test: Preemergence herbicidal evaluation, ZEAMX (Corn, Field)
From the text: as §1, §2

[8] = tested on: ECHINOCHLOA CRUS-GALLI, (L) BEAU; test: Preemergence herbicidal evaluation, ECHCG (Barnyardgrass)
From the text: as §1, §2

[9] = tested on: SETARIA VIRIDIS, (L) BEAU; test: Preemergence herbicidal evaluation, SETVI (Foxtail, Green)
From the text: as §1, §2

CASSIA OBTUSIFOLIA, L. = test: Preemergence herbicidal evaluation, CASOB (Sicklepod)
From the text: as §1, §2

Structure (SMILES)	Herbicide rating (0-9) TRZAWO ([1]; 0.125 kg/ha)	Herbicide rating (0-9) TRZAWO ([1]; 0.250 kg/ha)	Herbicide rating (0-9) TRZAWO ([1]; 0.500 kg/ha)	Herbicide rating (0-9) ORYSAT ([4]; 0.125 kg/ha)	Herbicide rating (0-9) ORYSAT ([4]; 0.250 kg/ha)	Herbicide rating (0-9) ORYSAT ([4]; 0.500 kg/ha)	Herbicide rating (0-9) AMBEL ([5]; 0.125 kg/ha)	Herbicide rating (0-9) AMBEL ([5]; 0.250 kg/ha)	Herbicide rating (0-9) IPOSS (IPOMOEA SPP.; 0.125 kg/ha)	Herbicide rating (0-9) IPOSS (IPOMOEA SPP.; 0.250 kg/ha)	Herbicide rating (0-9) IPOSS (IPOMOEA SPP.; 0.500 kg/ha)	Herbicide rating (0-9) GLXMAW ([6]; 0.125 kg/ha)	Herbicide rating (0-9) GLXMAW ([6]; 0.250 kg/ha)	Herbicide rating (0-9) GLXMAW ([6]; 0.500 kg/ha)	Herbicide rating (0-9) ZEAMX (ZEA MAYS L.; 0.125 kg/ha)	Herbicide rating (0-9) ZEAMX (ZEA MAYS L.; 0.250 kg/ha)	Herbicide rating (0-9) ZEAMX (ZEA MAYS L.; 0.500 kg/ha)	Herbicide rating (0-9) ECHCG ([8]; 0.125 kg/ha)	Herbicide rating (0-9) ECHCG ([8]; 0.250 kg/ha)	Herbicide rating (0-9) ECHCG ([8]; 0.500 kg/ha)	also measured
Cn1c(=O)n(CC(=O)O)c(=O)n(-c2cc(N3C(=O)C4=C(CCCC4)C3=O)c(F)cc2Cl)c1=O [Compound 3, 3-[2-Chloro-5-(1-cyclohexene-1,2-dicarbox-imido)-4-fluorophenyl]tetrahydro-5-methyl-2,4,6-trioxo-s-triazine-1(2H)-acetic acid]	0.0	0.0	0.0	0.0	0.0	0.0	0.0	0.0	0.0	0.0	0.0	0.0	0.0	0.0	0.0	0.0	0.0	–	–	–	Herbicide rating (0-9) SETVI ([2]; 0.125 kg/ha): 0.0; Herbicide rating (0-9) SETVI ([2]; 0.250 kg/ha): 0.0; Herbicide rating (0-9) SETVI ([2]; 0.500 kg/ha): 0.0; Herbicide rating (0-9) ABUTH ([3]; 0.125 kg/ha): 0.0; Herbicide rating (0-9) ABUTH ([3]; 0.250 kg/ha): 0.0; Herbicide rating (0-9) ABUTH ([3]; 0.500 kg/ha): 0.0; Herbicide rating (0-9) AMBEL ([5]; 0.500 kg/ha): 0.0; Herbicide rating (0-9) ECHCG ([7]; 0.125 kg/ha): 0.0; Herbicide rating (0-9) ECHCG ([7]; 0.250 kg/ha): 0.0; Herbicide rating (0-9) ECHCG ([7]; 0.500 kg/ha): 0.0
COC(=O)Cn1c(=O)n(C)c(=O)n(-c2cc(N3C(=O)C4=C(CCCC4)C3=O)c(Cl)cc2Cl)c1=O [Compound 6, Methyl 3-[2,4-dichloro-5-(1-cyclohexene-1,2-dicarboximido)phenyl]tetrahydro-5-methyl-2,4,6-trioxo-s-triazine-1(2H)-acetate]	2.0	2.0	2.0	4.0	4.0	4.0	–	–	4.0	4.0	4.0	–	–	–	–	–	–	0.0	0.0	0.0	–
Cn1c(=O)n(CC(=O)OC(C)(C)C)c(=O)n(-c2cc(N3C(=O)C4=C(CCCC4)C3=O)c(Cl)cc2Cl)c1=O [Compound 7, Tert-butyl 3-[2,4-dichloro-5-(1-cyclohexene-1,2-dicarboximido)phenyl]tetrahydro-5-methyl-2,4,6-trioxo-s-triazine-1(2H)-acetate]	–	–	–	–	–	–	0.0	0.0	0.0	0.0	0.0	0.0	0.0	0.0	0.0	0.0	0.0	0.0	0.0	0.0	Herbicide rating (0-9) SETVI ([9]; 0.125 kg/ha): 0.0; Herbicide rating (0-9) SETVI ([9]; 0.250 kg/ha): 0.0; Herbicide rating (0-9) SETVI ([9]; 0.500 kg/ha): 0.0; Herbicide rating (0-9) CASOB (CASSIA OBTUSIFOLIA, L.; 0.125 kg/ha): 0.0; Herbicide rating (0-9) CASOB (CASSIA OBTUSIFOLIA, L.; 0.250 kg/ha): 0.0; Herbicide rating (0-9) CASOB (CASSIA OBTUSIFOLIA, L.; 0.500 kg/ha): 0.0
